Consider one compound from patent publication US7084141B2, “Inhibitors of macrophase migration inhibitory factor and methods for identifying the same” (Avanir Pharmaceuticals, priority 2001, dated 2006).

The target in one assay is T1, MIF (Homo sapiens, UniProt P14174).
T1 sequence (P14174 2-115 limits assumed): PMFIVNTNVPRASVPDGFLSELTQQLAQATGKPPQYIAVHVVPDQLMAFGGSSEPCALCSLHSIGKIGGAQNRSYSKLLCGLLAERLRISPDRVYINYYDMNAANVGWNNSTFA
Put plainly: Immunoprecipitation of MIF from conditioned media of LPS treated THP-1 cells with monoclonal or polyclonal antibody. The class given is cell-based. To be noted: 10 μM compound; LPS 10 μg/ml; not observed with polyclonal antibody. The procedure:
Cell culture experiments were designed to characterize the activity of candidate compounds, MIF expression, trafficking, and export. Cell and conditioned medium fractions are prepared for immunoprecipitation essentially as described previously (Florkiewicz et al., Growth Factors 4:265–275, 1991; Florkiewicz et al., Ann. N.Y. Acad. Sci. 638:109–126) except that 400 μl of lysis buffer (1% NP-40, 0.5% deoxycholate, 20 mM Tris pH 7.5, 5 mM EDTA, 2 mM EGTA, 0.01 mM phenylmethylsufonyl fluoride, 10 ng/ml aprotinin, 10 ng/ml leupeptin, 10 ng/ml peptstatin) is added to the medium fraction after clarification by centrifugation in a microfuge for 15 minutes. Cell or medium fractions are incubated with monoclonal or polyclonal antibodies to MIF and GammaBind™ G Sepharose® (Pharmacia LKB Biotechnology, Uppsala, Sweden) was added for an additional 30 minutes incubation. Immune complexes are sedimented by microfuge centrifugation, washed three times with lysis buffer, and four times with ice cold immunoprecipitation wash buffer (0.15M NaCl, 0.01 M Na-phosphate pH 7.2, 1% deoxycholate, 1% NP-40, 0.1% sodium dodecyl sulfate). Immune complexes are dissociated directly in SDS gel sample buffer 125 mM Tris, pH 6.8, 4% SDS, 10% glycerol, 0.004% bromphenol blue, 2 mM EGTA, and separated by 12% SDS-PAGE. The gel is processed for fluorography, dried, and exposed to X-ray film at −70° C. […]

In a further assay the test system is DBA/1LacJ mice. Put plainly: Collagen induced arthritis model, paw thickness. In kind it is in vivo, mouse. To be noted: day 74, eight doses at 0.4 mg/dose; vehicle 1.99 mm; p<0.05. The procedure: Twenty DBA/1LacJ mice, age 10–12 weeks, were immunized on day 0 at base of the tail with bovine collagen type II (CII 100 μg) emulsified in Freunds complete adjuvant (FCA; GibcoBRL). On day 7, a second dose of collagen was administrated via the same route (emulsified in Freunds incomplete adjuvant). On Day 14 mice were injected subcutaneously with 100 mg of LPS (055:B5). On day 70 mice were injected 40 μg LPS (0111:B4) intraperitoneally. Groups were divided according paw thickness, which was measured by a caliper, after randomization, to create a balanced starting group. Compound in buffer was given to mice on days 71, 72, 73, and 74 (total eight doses at 0.4 mg/dose, approximately 20 mg/kg of body weight). Mice were then examined on day 74 by two observers for paw thickness. FIG. 14 sets forth the experimental timeline. In this experiment, subsided mice (decline of full-blown arthritis) were treated with a final i.p. injection of LPS on day 70 to stimulate cytokine production as well as acute inflammation.

The test system of another assay is serum MIF. Put plainly: Collagen induced arthritis model, serum MIF (ELISA). In kind it is in vivo, mouse. To be noted: day 74, compared to untreated CIA samples. As to the method: (§1) In another experiment, fifteen DBA/1J mice, age 10–12 weeks were immunized on day 0 at the base of the tail with bovine collagen type II (CII 100 μg), emulsified in Freunds complete adjuvant (FCA; GibcoBRL). On day 21, a second dose of collagen was administered via the same route, emulsified in Freunds incomplete adjuvant. On day 28 the mice were injected subcutaneously with 100 μg of LPS (055:B5). On day 71 the mice were injected i.p. with 40 μg LPS (0111:B4). Groups and treatment protocol were the same as described as above. On day 74 blood samples were collected and cytokines were measured.
(ELISA stands for enzyme-linked immunosorbent assay.)

Another assay concerns serum TNF-α. Put plainly: Collagen induced arthritis model, serum TNF-α (ELISA). In kind it is in vivo, mouse. To be noted: day 74, compared to untreated CIA samples. As to the method:
as §1

Take `Cn1c(=O)c([N+](=O)[O-])c(N2CCN(C(=O)c3ccco3)CC2)c2ccccc21` [compound 7e]: the “detectable MIF in conditioned media using the monoclonal antibody” value on MIF is given as “significant loss of detectable MIF”. Further, in the assay on DBA/1LacJ mice, the “edema of the paw (paw thickness)” value came to 1.87 mm. In the assay on serum MIF, the “serum MIF levels” value is given as “reduced serum MIF levels”. Moreover, the “serum TNF-α levels” value in the assay on serum TNF-α is “more significant inhibition of serum TNF-α levels”.
